Results as given in US9521846B2, “Template-fixed peptidomimetics with antimicrobial activity” (priority 2006, dated 2016).
≈ marks a conversion by molar mass, not a printed value. Non-standard residues stand in square brackets, D forms with d. Residues, ends and D or L forms follow the SMILES beside them. Cha = N[C@@H](CC1CCCCC1)C(=O)O; Chg = N[C@H](C(=O)O)C1CCCCC1; Nle = CCCC[C@H](N)C(=O)O; Dab = NCC[C@H](N)C(=O)O; Nva = CCC[C@H](N)C(=O)O

Key:
P. aeruginosa ATCC 27853 = format: cell-based, Pseudomonas aeruginosa; conditions: ATCC 27853
Procedure: (§1) The selective antimicrobial activities of the peptides were determined in 96-well plates (Nunclon polystyrene) by the standard NCCLS broth microdilution method (see ref 1, below) with slight modifications. Innocula of the microorganisms were diluted into Mueller-Hinton (MH) broth+0.02% BSA and compared with a 0.5 Mcfarland standard to give appr. 10^6 colony forming units (CFU)/ml. Aliquots (50 μl) of inoculate were added to 50 μl of MH broth+0.02% BSA containing the peptide in serial two-fold dilutions. The following microorganisms were used to determine antibiotic selectivity of the peptides: Escherichia coli (ATCC 25922), Pseudomonas aeruginosa (P. aeruginosa ATCC 27853, P8191900, P1021903, P1021913, IMP 1 Livermore 3140).

[1] = system: Pseudomonas aeruginosa IMP 1 Livermore 3140; format: cell-based; conditions: IMP 1 Livermore 3140
Procedure: as §1

[2] = system: Pseudomonas aeruginosa P1021903; format: cell-based; conditions: P1021903
Procedure: as §1

[3] = system: Pseudomonas aeruginosa P1021913; format: cell-based; conditions: P1021913
Procedure: as §1

[4] = system: Pseudomonas aeruginosa P8191900; format: cell-based; conditions: P8191900
Procedure: as §1

HELA cells (Acc57) = assay: Cytotoxicity assay, MTT reduction (LC 50, GI 50); format: cell-based
Procedure: The cytotoxicity of the peptides to HELA cells (Acc57) and COS-7 cells (CRL-1651) was determined using the MIT reduction assay [see ref. 2 and 3, below]. Briefly the method was as follows: HELA cells and COS-7 cells were seeded at 7.0×10^3 and, respectively, 4.5×10^3 cells per well and grown in 96-well […] plates for 24 hours at 37° C. at 5% CO2. At this point, time zero (Tz) was determined by MTT reduction (see below). The supernatant of the remaining wells was discarded, and fresh medium and the peptides in serial dilutions of 12.5, 25 and 50 μM were dispensed into the wells. Each peptide concentration was assayed in triplicate. Incubation of the cells was continued for 48 hours at 37° C. at 5% CO2. Wells were then washed once with phosphate buffered saline (PBS) and subsequently 100 μl MIT reagent (0.5 mg/ml in medium RPMI1640 and, respectively, DMEM) were added to the wells. This was incubated at 37° C. for 2 hours and subsequently the medium was aspirated and 100 μl isopropanol were added to each well. The absorbance at 595 nm of the solubilized product was measured (OD595peptide). For each concentration averages were calculated from triplicates. The percentage of growth was calculated as follows: (OD595peptide-OD595Tz-OD595Empty well)/(OD595Tz-OD595Empty well)×100% and was plotted for each peptide concentration.
The LC 50 values (Lethal Concentration, defined as the concentration that kills 50% of the cells) were determined for each peptide by using the trend line function of EXCEL (Microsoft Office 2000) for the concentrations (50, 25, 12.5 and 0 μM), the corresponding growth percentages and the value −50, (=TREND(C50:C0,%50:%0,−50)). The GI 50 (Growth Inhibition) concentrations were calculated for each peptide by using a trend line function for the concentrations (50, 25, 12.5 and 0 […]), the corresponding percentages and the value 50, (=TREND (C50:C0,%50:%0,50).

[5] = system: human red blood cells (hRBC); assay: Hemolysis; format: cell-based; conditions: 100
Procedure: Hemolysis of red blood cells is often employed for assessment of toxicity of related compounds such as protegrin or tachyplesin. Values are given as %-lysis of red blood cells observed at a concentration of 100 μg/ml. Typical values determined for cationic peptides such as protegrin and tachyplesin range between 30-40% with average MIC-values of 1-5 μg/ml over a wide range of pathogens.
The peptides were tested for their hemolytic activity against human red blood cells (hRBC). Fresh hRBC were washed three times with phosphate buffered saline (PBS) by centrifugation for 10 min at 2000×g. Peptides at a concentration of 100 μM were incubated with 20% v/v hRBC for 1 hour at 37° C. The final erythrocyte concentration was approximately 0.9×10^9 cells per ml. A value of 0% and, respectively, 100% cell lysis was determined by incubation of the hRBC in the presence of PBS alone and, respectively, 0.1% Triton X-100 in H2O. The samples were centrifuged, the supernatant was 20-fold diluted in PBS buffer and the optical density (OD) of the sample at […] was measured. The 100% lysis value (OD540H20) gave an OD540 of approximately 1.3-1.8. Percent hemolysis was calculated as follows: (OD540peptide/OD540H20)×100%.

| SMILES | MIC P. aeruginosa ATCC 27853 (P. aeruginosa ATCC 27853) | MIC P. aeruginosa IMP1 Livermore 3140 [1] | MIC P. aeruginosa P1021903 [2] | MIC P. aeruginosa P1021913 [3] | MIC P. aeruginosa P8191900 [4] | Cytotoxicity GI50 Hela cells (HELA cells (Acc57)) | Hemolysis at 100 μg/ml [5] | Average MIC (P. aeruginosa) |
| --- | --- | --- | --- | --- | --- | --- | --- | --- |
| CCCC[C@@H]1NC(=O)[C@H](CCN)NC(=O)[C@H](CCN)NC(=O)[C@H](Cc2c[nH]c3ccccc23)NC(=O)[C@H](CCN)NC(=O)[C@H](CCN)NC(=O)[C@H](CCCCN)NC(=O)[C@H](CCN)NC(=O)[C@H]([C@@H](C)CC)NC(=O)[C@H](Cc2c[nH]c3ccccc23)NC(=O)[C@H]([C@@H](C)O)NC(=O)[C@@H]2CCCN2C(=O)[C@H]2CCCN2C(=O)[C@H](CCN)NC1=O [Example 9] (cyclo(TWI[Dab]K[Dab][Dab]W[Dab][Dab][Nle][Dab][dP]P)) | 0.21 µg/mL (≈ 0.129 µM) | >2 µg/mL | 1.50 µg/mL (≈ 0.924 µM) | 0.75 µg/mL (≈ 0.462 µM) | 0.75 µg/mL (≈ 0.462 µM) | 50 µM | 0.7% | >1 µg/mL |
| CCC[C@@H]1NC(=O)[C@H](CCN)NC(=O)[C@H](CCN)NC(=O)[C@H](Cc2c[nH]c3ccccc23)NC(=O)[C@H](CCN)NC(=O)[C@H](CCN)NC(=O)[C@H](CCCCN)NC(=O)[C@H](CCN)NC(=O)[C@H]([C@@H](C)CC)NC(=O)[C@H](Cc2c[nH]c3ccccc23)NC(=O)[C@H]([C@@H](C)O)NC(=O)[C@@H]2CCCN2C(=O)[C@H]2CCCN2C(=O)[C@H](CCN)NC1=O [Example 10] (cyclo(TWI[Dab]K[Dab][Dab]W[Dab][Dab][Nva][Dab][dP]P)) | 0.05 µg/mL (≈ 0.0311 µM) | 0.43 µg/mL (≈ 0.267 µM) | 0.13 µg/mL (≈ 0.0808 µM) | 0.37 µg/mL (≈ 0.23 µM) | 0.18 µg/mL (≈ 0.112 µM) | 50 µM | 0% | 0.23 µg/mL |
| CC[C@H](C)[C@@H]1NC(=O)[C@H](Cc2c[nH]c3ccccc23)NC(=O)[C@H]([C@@H](C)O)NC(=O)[C@@H]2CCCN2C(=O)[C@H]2CCCN2C(=O)[C@H](CCN)NC(=O)[C@H](C2CCCCC2)NC(=O)[C@H](CCN)NC(=O)[C@H](CCN)NC(=O)[C@H](Cc2c[nH]c3ccccc23)NC(=O)[C@H](CCN)NC(=O)[C@H](CCN)NC(=O)[C@H](CCCCN)NC(=O)[C@H](CCN)NC1=O [Example 11] (cyclo(TWI[Dab]K[Dab][Dab]W[Dab][Dab][Chg][Dab][dP]P)) | 0.30 µg/mL (≈ 0.182 µM) | >2 µg/mL | 2.00 µg/mL (≈ 1.21 µM) | 0.75 µg/mL (≈ 0.455 µM) | 1.00 µg/mL (≈ 0.606 µM) | 50 µM | 0.5% | >1 µg/mL |
| CC[C@H](C)[C@@H]1NC(=O)[C@H](Cc2c[nH]c3ccccc23)NC(=O)[C@H]([C@@H](C)O)NC(=O)[C@@H]2CCCN2C(=O)[C@H]2CCCN2C(=O)[C@H](CCN)NC(=O)[C@H](CC2CCCCC2)NC(=O)[C@H](CCN)NC(=O)[C@H](CCN)NC(=O)[C@H](Cc2c[nH]c3ccccc23)NC(=O)[C@H](CCN)NC(=O)[C@H](CCN)NC(=O)[C@H](CCCCN)NC(=O)[C@H](CCN)NC1=O [Example 12] (cyclo(TWI[Dab]K[Dab][Dab]W[Dab][Dab][Cha][Dab][dP]P)) | 0.40 µg/mL (≈ 0.241 µM) | >2 µg/mL | 2.00 µg/mL (≈ 1.2 µM) | 0.75 µg/mL (≈ 0.451 µM) | 1.00 µg/mL (≈ 0.601 µM) | 50 µM | 0.7% | >1 µg/mL |
| CC[C@H](C)[C@@H]1NC(=O)[C@H](Cc2c[nH]c3ccccc23)NC(=O)[C@H]([C@@H](C)O)NC(=O)[C@@H]2CCCN2C(=O)[C@H]2CCCN2C(=O)[C@H](CCN)NC(=O)[C@H](CCC(N)=O)NC(=O)[C@H](CCN)NC(=O)[C@H](CCN)NC(=O)[C@H](Cc2c[nH]c3ccccc23)NC(=O)[C@H](CCN)NC(=O)[C@H](CCN)NC(=O)[C@H](CCCCN)NC(=O)[C@H](CCN)NC1=O [Example 13] (cyclo(TWI[Dab]K[Dab][Dab]W[Dab][Dab]Q[Dab][dP]P)) | 0.21 µg/mL (≈ 0.128 µM) | 0.75 µg/mL (≈ 0.458 µM) | 0.40 µg/mL (≈ 0.244 µM) | 0.31 µg/mL (≈ 0.189 µM) | 0.30 µg/mL (≈ 0.183 µM) | 50 µM | 0.4% | 0.40 µg/mL |
| CC[C@H](C)[C@@H]1NC(=O)[C@H](Cc2c[nH]c3ccccc23)NC(=O)[C@H]([C@@H](C)O)NC(=O)[C@@H]2CCCN2C(=O)[C@H]2CCCN2C(=O)[C@H](CCN)NC(=O)[C@H](CC(=O)O)NC(=O)[C@H](CCN)NC(=O)[C@H](CCN)NC(=O)[C@H](Cc2c[nH]c3ccccc23)NC(=O)[C@H](CCN)NC(=O)[C@H](CCN)NC(=O)[C@H](CCCCN)NC(=O)[C@H](CCN)NC1=O [Example 14] (cyclo(TWI[Dab]K[Dab][Dab]W[Dab][Dab]D[Dab][dP]P)) | 0.21 µg/mL (≈ 0.129 µM) | >2 µg/mL | 0.31 µg/mL (≈ 0.191 µM) | 0.65 µg/mL (≈ 0.4 µM) | 0.40 µg/mL (≈ 0.246 µM) | 12 µM | 0.3% | >1 µg/mL |
| CC[C@H](C)[C@@H]1NC(=O)[C@H](Cc2c[nH]c3ccccc23)NC(=O)[C@H]([C@@H](C)O)NC(=O)[C@@H]2CCCN2C(=O)[C@H]2CCCN2C(=O)[C@H](CCN)NC(=O)[C@H](CCC(=O)O)NC(=O)[C@H](CCN)NC(=O)[C@H](CCN)NC(=O)[C@H](Cc2c[nH]c3ccccc23)NC(=O)[C@H](CCN)NC(=O)[C@H](CCN)NC(=O)[C@H](CCCCN)NC(=O)[C@H](CCN)NC1=O [Example 15] (cyclo(TWI[Dab]K[Dab][Dab]W[Dab][Dab]E[Dab][dP]P)) | 0.50 µg/mL (≈ 0.305 µM) | >2 µg/mL | 1.25 µg/mL (≈ 0.763 µM) | 2.25 µg/mL (≈ 1.37 µM) | 2.50 µg/mL (≈ 1.53 µM) | 50 µM | 0.3% | >1 µg/mL |
| CC[C@H](C)[C@@H]1NC(=O)[C@H](Cc2c[nH]c3ccccc23)NC(=O)[C@H]([C@@H](C)O)NC(=O)[C@@H]2CCCN2C(=O)[C@H]2CCCN2C(=O)[C@H](CCN)NC(=O)[C@@H]2CCCN2C(=O)[C@H](CCN)NC(=O)[C@H](CCN)NC(=O)[C@H](Cc2c[nH]c3ccccc23)NC(=O)[C@H](CCN)NC(=O)[C@H](CCN)NC(=O)[C@H](CCCCN)NC(=O)[C@H](CCN)NC1=O [Example 17] (cyclo(TWI[Dab]K[Dab][Dab]W[Dab][Dab]P[Dab][dP]P)) | 0.75 µg/mL (≈ 0.467 µM) | >2 µg/mL | 2.00 µg/mL (≈ 1.24 µM) | 1.25 µg/mL (≈ 0.778 µM) | 1.50 µg/mL (≈ 0.933 µM) | 29 µM | 0.5% | >1 µg/mL |
